Molecules are shown by their SMILES.

Data set [1] has as its target T1, "5-HT1 -like" receptor (Canis lupus familiaris, UniProt P79250).
T1 construct: dog isolated saphenous vein strip; from tissue; host or cells: dog isolated saphenous vein strip
Description: contraction of dog isolated saphenous vein strip (in vitro "5-HT1 -like" receptor agonist activity). The note with it: for EC50: concentration which causes 50% of the maximum contraction effected by the compound; for RELATIVE POTENCY EC50 (compound) / EC50 (5-HT): ratio to 5-HT. Format: cell-based. An excerpt: EC50 represents the concentration of compound which causes 50% of the maximum contraction effected by it.

Data set [2] in a line: acute toxicity in conscious dog, i.v. The format is in vivo. The note with it: doses of up to 1 mg/Kg i.v.
Data set [3] can be described thus: acute toxicity in conscious mouse, i.v. Format: in vivo. The note with it: doses of up to 10 mg/Kg i.v.
Data set [4] has as its target T1, "5-HT1 -like" receptor. The note with it: cited from earlier work.
Data set [5] deals with carotid vascular bed. To be noted: anaesthetized dog; cited from earlier work.

T1 sequence (P79250 whole entry): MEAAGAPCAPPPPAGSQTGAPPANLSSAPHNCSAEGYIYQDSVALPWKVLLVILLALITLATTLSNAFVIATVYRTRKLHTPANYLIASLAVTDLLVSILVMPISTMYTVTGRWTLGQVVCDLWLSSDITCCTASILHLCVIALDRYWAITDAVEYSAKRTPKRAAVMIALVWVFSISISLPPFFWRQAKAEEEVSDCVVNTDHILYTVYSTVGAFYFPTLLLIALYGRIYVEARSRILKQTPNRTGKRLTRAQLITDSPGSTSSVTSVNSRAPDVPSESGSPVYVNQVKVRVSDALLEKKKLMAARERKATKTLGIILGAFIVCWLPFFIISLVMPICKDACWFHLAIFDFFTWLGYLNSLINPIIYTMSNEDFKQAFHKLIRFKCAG

Consider `CC(C)(O)CCc1ccc2[nH]cc(C[C@H]3CCCN3CC3CC3)c2c1` [Example 25, 3-(N-Cyclopropylmethyl-2(R)-pyrrolidinylmethyl)-5-(3-hydroxy-3-methyl-1-butyl)-1H-indole], for which, in data set [1], the 50% effective concentration (EC50) stood at 480 nM and the “RELATIVE POTENCY EC50 (compound) / EC50 (5-HT)” value stood at 6.4.
The compound `CC(C)(O)CCc1ccc2[nH]cc(C[C@H]3CCCN3)c2c1` [Example 29, 5-(3-Hydroxy-3-methyl-1-butyl)-3-(2(R)-pyrrolidinylmethyl)-1H-indole] had a concentration giving a half-maximal response (EC50) in data set [1] of 670 nM. Also, the “RELATIVE POTENCY EC50 (compound) / EC50 (5-HT)” value in data set [1] was 9.0. Further, the “signs of adverse acute toxicity” value in data set [2] and in data set [3] was “no signs of adverse acute toxicity” in each case.
Turning to `CC(O)(CCc1ccc2[nH]cc(C[C@H]3CCCN3)c2c1)C(F)(F)F` (stereo partly drawn) [Example 95, 5-(3-Hydroxy-3-trifluoromethyl-1-butyl)-3-(2(R)-pyrrolidinylmethyl)-1H-indole], in data set [1], the EC50 is 320 nM and the “RELATIVE POTENCY EC50 (compound) / EC50 (5-HT)” value stood at 4.0.
The like results for `CN1CCC[C@@H]1Cc1c[nH]c2ccc(C=CC(C)(C)O)cc12` [Example 1, 5-(3-Hydroxy-3-methyl-1-but-1-enyl)-3-(N-methyl-2(R)-pyrrolidinylmethyl)-1H-indole] were, in that order, 400 nM and 7.7.
Regarding `CC(C)(O)CCc1ccc2[nH]cc(CCN)c2c1` [Example 48, 3-(2-Aminoethyl)-5-(3-hydroxy-3-methyl-1-butyl)-1H-indole], in data set [1], the concentration giving a half-maximal response (EC50) is 300 nM and the “RELATIVE POTENCY EC50 (compound) / EC50 (5-HT)” value worked out at 3.2.
For `CC(O)CCc1ccc2[nH]cc(C3CCN(C)CC3)c2c1` (centres unmarked) [Example 43, 5-(3-Hydroxy-1-butyl)-3-(N-methyl-4-piperidyl)-1H-indole] the same measures were 560 nM and 8.0.
The like results for `CN(C)C(=O)CCN1CCC[C@@H]1Cc1c[nH]c2ccc(CCC3(O)CCOC3)cc12` (stereo partly drawn) [Example 101, 5-[2-(3-Hydroxy-3-tetrahydrofuranyl)ethyl]-3-{N-[2-(N,N-dimethylcarbamoyl)ethyl]-2(R)-pyrrolidinylmethyl}-1H-indole] were, in that order, 700 nM and 10.0.
As to `CNS(=O)(=O)Cc1ccc2[nH]cc(CCN(C)C)c2c1` [Sumatriptan, sumatriptan], the “contraction of the isolated dog saphenous vein strip” value in data set [4] (P.P.A. Humphrey et al., Brit. J. Pharmacol., 1988, 94, 1123) is “contracting the isolated dog saphenous vein strip”. Also, in data set [5], the “carotid arterial blood flow” value is “decrease in carotid arterial blood flow” and the carotid vascular resistance entry is listed as “selective increase in carotid vascular resistance”.
Regarding `CC(C)(O)CCc1ccc2[nH]cc(C[C@H]3CCCN3CCc3ccncc3)c2c1` [Example 30, 5-(3-Hydroxy-3-methyl-1-butyl)-3-{N-[2-(4-pyridyl)ethyl]-2(R)-pyrrolidinylmethyl}-1H-indole], in data set [1], the EC50 amounted to 940 nM and the “RELATIVE POTENCY EC50 (compound) / EC50 (5-HT)” value worked out at 7.2.
Consider `CSc1ccc2c(c1)C(N1CCN(C)CC1)Cc1ccccc1S2` (centres unmarked) [methiothepin], for which the “blockade of the contraction effect” value in data set [4] (isolated dog saphenous vein strip, known 5-HT antagonist) is on record as “blocked”.
As for `CC(=O)CCc1ccc2[nH]cc(C[C@H]3CCCN3)c2c1` [Example 37, 5-(3-Oxo-1-butyl)-3-(2(R)-pyrrolidinylmethyl)-1H-indole], in data set [1], the EC50 was found to be 130 nM and the “RELATIVE POTENCY EC50 (compound) / EC50 (5-HT)” value is reported as 1.3.
The like results for `OC1(CCc2ccc3[nH]cc(C4CCNC4)c3c2)CCCC1` (centres unmarked) [Example 109, 5-[2-(1-Hydroxycyclopentyl)ethyl]-3-(3-pyrrolidinyl)-1H-indole] were, in that order, 750 nM and 8.5.

What is called EC50 is the concentration needed to bring the measured effect to its halfway point. A higher EC50 goes with a need for much substance.

(Values after patent publication US5607960A, “Indole derivatives as 5-HT1-like agonists for use in migraine” (Pfizer Inc., priority 1993, dated 1997).)
